Source: patent publication US6355799B1, “Substituted benzene compounds, process for their preparation, and herbicidal and defoliant compositions containing them” (ISK Americas Incorporated, priority 1997, dated 2002)

Legend:
Assay type in all cases: in vivo
[1] = tested on: field corn (Zea mays L., var. Dekalb 535, CORN); test: Post-emerge test, crop safety; conditions: post-emerge, 14 days after application, rating scale 0-100
Outline: (§1)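 Applied at 15–1000 g ai/ha from acetone in 187 l/ha spray volume. Post-emergence applications included 0.25% v/v non-ionic surfactant and reached plants sown 8–21 days before. Pre-emergence applications were incorporated by surface watering. Efficacy or crop damage was rated on a 0–100 scale after 14 days.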

[2] = tested on: upland rice (Oryza sp., var. Tebonnet, RICE); test: Post-emerge test, crop safety; conditions: post-emerge, 14 days after application, rating scale 0-100
Outline: as §1

[3] = tested on: green foxtail (Setaria viridis, SETVI); test: Post-emerge test, greenhouse herbicide activity screening; conditions: post-emerge, 14 days after application, rating scale 0-100
Outline: (§2)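 Compounds in acetone were track-sprayed at 187 l/ha, 15–1000 g ai/ha, onto sandy loam pots. Pre-emerge seeds were sown one day before spraying, with surface watering afterwards. Post-emerge plants were at the 2–3 leaf stage and sprayed with 0.25% v/v non-ionic surfactant. Injury was rated 0–100 at 14 days.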

[4] = tested on: large crabgrass (Digitaria sanguinalis, DIGSA); test: as above; conditions: post-emerge, 14 days after application, rating scale 0-100
Outline: as §2

[5] = tested on: velvetleaf (Abutilon theophrasti, ABUTH); test: as above; conditions: post-emerge, 14 days after application, rating scale 0-100
Outline: as §2

[6] = tested on: sicklepod (Cassia obtusifolia, CASOB); test: as above; conditions: post-emerge, 14 days after application, rating scale 0-100
Outline: as §2

[7] = tested on: redroot pigweed (Amaranthus retroflexus, AMARE); test: as above; conditions: post-emerge, 14 days after application, rating scale 0-100
Outline: as §2

[8] = tested on: barnyardgrass (Echinochloa crus-galli, ECHCG); test: as above; conditions: post-emerge, 14 days after application, rating scale 0-100
Outline: as §2

[9] = tested on: ivyleaf morningglory (Ipomoea hederacea, IPOHE); test: as above; conditions: post-emerge, 14 days after application, rating scale 0-100
Outline: as §2

[10] = tested on: lambsquarters (Chenopodium album, CHEAL); test: as above; conditions: post-emerge, 14 days after application, rating scale 0-100
Outline: as §2

[11] = tested on: green foxtail (Setaria viridis, SETVI); test: Pre-emerge test, greenhouse herbicide activity screening
Outline: as §1

[12] = tested on: large crabgrass (Digitaria sanguinalis, DIGSA); test: as above
Outline: as §1

[13] = tested on: velvetleaf (Abutilon theophrasti, ABUTH); test: as above
Outline: as §1

[14] = tested on: sicklepod (Cassia obtusifolia, CASOB); test: as above
Outline: as §1

[15] = tested on: barnyardgrass (Echinochloa crus-galli, ECHCG); test: as above
Outline: as §1

[16] = tested on: johnsongrass (Sorghum halepense, SORHA); test: as above
Outline: as §1

[17] = tested on: ivyleaf morningglory (Ipomoea hederacea, IPOHE); test: as above
Outline: as §1

[18] = tested on: lambsquarters (Chenopodium album, CHEAL); test: as above
Outline: as §1

[19] = tested on: field corn (Zea mays L., var. Dekalb 535, CORN); test: Pre-emerge test, crop safety
Outline: as §2

[20] = tested on: upland rice (Oryza sp., var. Tebonnet, RICE); test: Pre-emerge test, crop safety
Outline: as §2

[21] = tested on: redroot pigweed (Amaranthus retroflexus, AMARE); test: Pre-emerge test, greenhouse herbicide activity screening
Outline: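 Rating: 0–100 visual injury, 14 DAA. Application: acetone, 187 l/ha, 15–1000 g ai/ha, flat-fan track sprayer with nozzle 40–45 cm above soil or canopy. Post-emerge runs used 0.25% v/v surfactant on 2–3 leaf plants.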

[22] = 250 g ai/ha, phytotoxicity rating 0-100, 14 days after application
[23] = pre-emerge, 63 g ai/ha, 14 days after application, scale 0-100
[24] = 250 g ai/ha, crop damage rating 0-100, 14 days after application

Question: Which “CORN phytotoxicity rating (crop damage)” value ([1]; 63 g ai/ha) does the source give for `N#CCOc1c(Cl)cc(F)c(-n2c(=O)cc(C(F)(F)F)n(N)c2=O)c1NC(=O)c1ccc2ccccc2c1` [2-188] here?
Answer: 25

Question: And the “CORN phytotoxicity rating (crop damage)” value ([1]; 250 g ai/ha)?
Answer: 45

Question: What about the “RICE phytotoxicity rating (crop damage)” value ([2]; 63 g ai/ha) of the same compound?
Answer: 20

Question: And the “RICE phytotoxicity rating (crop damage)” value ([2]; 250 g ai/ha)?
Answer: 40

Question: And the SETVI phytotoxicity rating ([3]; 63 g ai/ha)?
Answer: 10

Question: What about the SETVI phytotoxicity rating ([3]; 250 g ai/ha) of the same compound?
Answer: 20

Question: What about the DIGSA phytotoxicity rating ([4]; 63 g ai/ha) of the same compound?
Answer: 0

Question: And the DIGSA phytotoxicity rating ([4]; 250 g ai/ha)?
Answer: 10

Question: And the ABUTH phytotoxicity rating ([5]; 63 g ai/ha)?
Answer: 100

Question: And the ABUTH phytotoxicity rating ([5]; 250 g ai/ha)?
Answer: 100

Question: What about the CASOB phytotoxicity rating ([6]; 63 g ai/ha) of the same compound?
Answer: 55

Question: And the CASOB phytotoxicity rating ([6]; 250 g ai/ha)?
Answer: 90

Question: What about the AMARE phytotoxicity rating ([7]; 63 g ai/ha) of the same compound?
Answer: 85

Question: And the AMARE phytotoxicity rating ([7]; 250 g ai/ha)?
Answer: 90

Question: And the ECHCG phytotoxicity rating ([8]; 63 g ai/ha)?
Answer: 30

Question: What about the ECHCG phytotoxicity rating ([8]; 250 g ai/ha) of the same compound?
Answer: 40

Question: And the IPOHE phytotoxicity rating ([9]; 63 g ai/ha)?
Answer: 100

Question: And the IPOHE phytotoxicity rating ([9]; 250 g ai/ha)?
Answer: 100

Question: What about the CHEAL phytotoxicity rating ([10]; 63 g ai/ha) of the same compound?
Answer: 80

Question: And the CHEAL phytotoxicity rating ([10]; 250 g ai/ha)?
Answer: 100

Question: And the “Pre-emerge Herbicidal Activity SETVI” value [11, 22]?
Answer: 50

Question: What about the “phytotoxicity rating SETVI” value [11, 23] of the same compound?
Answer: 30

Question: What about the “Pre-emerge Herbicidal Activity DIGSA” value [12, 22] of the same compound?
Answer: 60

Question: And the “phytotoxicity rating DIGSA” value [12, 23]?
Answer: 10

Question: What about the “Pre-emerge Herbicidal Activity ABUTH” value [13, 22] of the same compound?
Answer: 100

Question: And the “phytotoxicity rating ABUTH” value [13, 23]?
Answer: 90

Question: And the “Pre-emerge Herbicidal Activity CASOB” value [14, 22]?
Answer: 0

Question: What about the “phytotoxicity rating CASOB” value [14, 23] of the same compound?
Answer: 0

Question: What about the “Pre-emerge Herbicidal Activity ECHCG” value [15, 22] of the same compound?
Answer: 60

Question: And the “phytotoxicity rating ECHCG” value [15, 23]?
Answer: 30

Question: And the “Pre-emerge Herbicidal Activity SORHA” value [16, 22]?
Answer: 30

Question: What about the “phytotoxicity rating SORHA” value [16, 23] of the same compound?
Answer: 10

Question: And the “Pre-emerge Herbicidal Activity IPOHE” value [17, 22]?
Answer: 90

Question: What about the “phytotoxicity rating IPOHE” value [17, 23] of the same compound?
Answer: 10

Question: And the “Pre-emerge Herbicidal Activity CHEAL” value [18, 22]?
Answer: 100

Question: And the “phytotoxicity rating CHEAL” value [18, 23]?
Answer: 100

Question: And the “Pre-emerge Herbicidal Activity CORN” value [19, 24]?
Answer: 0

Question: What about the “phytotoxicity rating CORN (crop damage)” value [19, 23] of the same compound?
Answer: 0

Question: And the “Pre-emerge Herbicidal Activity RICE” value [20, 24]?
Answer: 10

Question: What about the “phytotoxicity rating RICE (crop damage)” value [20, 23] of the same compound?
Answer: 10

Question: What about the “Pre-emerge Herbicidal Activity AMARE” value [21, 22] of the same compound?
Answer: 80

Question: And the “phytotoxicity rating AMARE” value [21, 23]?
Answer: 100
